Source: patent US9090605B2, “Substituted 5-,6- and 7-membered heterocycles, medicaments containing such compounds, and their use” (Vitae Pharmaceuticals, Inc., priority 2010, dated 2015)
pIC50: −log10 of the molar value.

biological target: 11β-HSD1 (Homo sapiens, UniProt P28845); experiment: Inhibition of a microsomal preparation of 11β-HSD1, scintillation proximity assay, microsomes from CHO cells overexpressing human 11β-HSD1 (biological test example 2); format: biochemical; design: expressed in transfected cells; host or cells: CHO cells (microsomes isolated from them); conditions: microsomes from CHO cells overexpressing human 11β-HSD1, SPA, [3H]cortisone, 90 minutes at room temperature; read-out: IC50, inhibitory activity on 11β-HSD 1
Procedure: All reactions were carried out at room temperature in 96 well clear flexible PET Microbeta plates (PerkinElmer). The assay begins by dispensing 49 μl of substrate solution [50 mM HEPES, pH 7.4, 100 mM KCl, 5 mM NaCl, 2 mM MgCl2, 2 mM NADPH and 160 nM [^3H]cortisone (1 Ci/mmol)] and mixing in 1 μL of the test compounds in dimethyl sulfoxide previously diluted in half-log increments (8 points) starting at 0.1 mM. After a 10 minute pre-incubation, 50 μL of enzyme solution containing microsomes isolated from CHO cells overexpressing human 11β-HSD1 (10-20 μg/ml of total protein) was added, and the plates were incubated for 90 minutes at room temperature. The reaction was stopped by adding 50 μl of the SPA beads suspension containing 10 μM 18β-glycyrrhetinic acid, 5 mg/ml protein A coated YSi SPA beads (GE Healthcare) and 3.3 μg/ml of anti-cortisol antibody (East Coast Biologics) in Superblock buffer (Bio-Rad). The plates were shaken for 120 minutes at room temperature, and the SPA signal corresponding to [^3H]cortisol was measured on a Microbeta plate reader.

Sequence of 11β-HSD1 (P28845 whole entry): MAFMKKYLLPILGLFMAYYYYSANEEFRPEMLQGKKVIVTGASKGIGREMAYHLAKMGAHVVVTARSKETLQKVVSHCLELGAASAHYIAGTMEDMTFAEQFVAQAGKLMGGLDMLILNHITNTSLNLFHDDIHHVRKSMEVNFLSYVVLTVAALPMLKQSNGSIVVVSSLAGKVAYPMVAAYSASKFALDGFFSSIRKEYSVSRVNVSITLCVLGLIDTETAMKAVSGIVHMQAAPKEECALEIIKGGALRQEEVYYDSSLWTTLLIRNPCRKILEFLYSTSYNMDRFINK

| SMILES | pIC50 |
| --- | --- |
| C[C@@H](c1ccc(-c2cnc(N3CCC3)nc2)cc1)N1CC[C@](CC(C)(C)O)(c2ccccc2)OC1=O [Example 34, 3-((S)-1-{4-[2-(azetidin-1-yl)pyrimidin-5-yl)phenyl]ethyl}-(S)-6-(2-hydroxy-2-methylpropyl)-6-phenyl-1,3-oxazinan-2-one] | 9.00 |
| C[C@@H](c1ccc(-c2cnc(N3CC(O)C3)nc2)cc1)N1CC[C@](CC(C)(C)O)(c2ccccc2)OC1=O [Example 35, (S)-6-(2-hydroxy-2-methylpropyl)-3-((S)-1-{4-[2-(3-hydroxyazetidin-1-yl)pyrimidin-5-yl]phenyl}ethyl)-6-phenyl-1,3-oxazinan-2-one] | 8.55 |
| C[C@@H](c1ccc(-c2cnc(-n3ccccc3=O)s2)cc1)N1CC[C@](CC(C)(C)O)(c2ccccc2)OC1=O [Example 36, (S)-6-(2-hydroxy-2-methylpropyl)-3-((S)-1-{4-[2-(2-oxopyridin-1 (2H)-yl)thiazol-5-yl]phenyl}ethyl)-6-phenyl-1,3-oxazinan-2-one] | 9.10 |
| C[C@@H](c1ccc(-c2csc(-n3ccccc3=O)n2)cc1)N1CC[C@](CC(C)(C)O)(c2ccccc2)OC1=O [Example 37, (S)-6-(2-hydroxy-2-methylpropyl)-3-((S)-1-{4-[2-(2-oxopyridin-1(2H)-yl)thiazol-4-yl]phenyl}ethyl)-6-phenyl-1,3-oxazinan-2-one] | 9.30 |
| C[C@@H](c1ccc(-c2ccnc(N3CCOCC3)n2)cc1)N1CC[C@](CC(C)(C)O)(c2ccccc2)OC1=O [Example 38, (S)-6-(2-hydroxy-2-methylpropyl)-3-{(S)-1-[4-(2-morpholinopyrimidin-4-yl)phenyl]ethyl}-6-phenyl-1,3-oxazinan-2-one] | 8.64 |
| C[C@@H](c1ccc(-c2cccc(N3CCCCC3=O)n2)cc1)N1CC[C@](CC(C)(C)O)(c2ccccc2)OC1=O [Example 39, (S)-6-(2-hydroxy-2-methylpropyl)-3-((S)-1-{4-[6-(2-oxopiperidin-1-yl)pyridin-2-yl]phenyl}ethyl)-6-phenyl-1,3-oxazinan-2-one] | 8.43 |
| C[C@@H](c1ccc(-c2cccc(N3CCOCC3)n2)cc1)N1CC[C@](CC(C)(C)O)(c2ccccc2)OC1=O [Example 40, (S)-6-(2-hydroxy-2-methylpropyl)-3-{(S)-1-[4-(6-morpholinopyridin-2-yl)phenyl]ethyl}-6-phenyl-1,3-oxazinan-2-one] | 8.96 |
| C[C@@H](c1ccc(-c2cccc(-n3ccccc3=O)n2)cc1)N1CC[C@](CC(C)(C)O)(c2ccccc2)OC1=O [Example 41, (S)-6-(2-hydroxy-2-methylpropyl)-3-((S)-1-{4-[6-(2-oxopyridin-1 (2H)-yl)pyridin-2-yl]phenyl}ethyl)-6-phenyl-1,3-oxazinan-2-one] | 8.64 |
| C[C@@H](c1ccc(-c2ccc(C3(C(N)=O)CC3)nc2)cc1)N1CC[C@](CC(C)(C)O)(c2ccccc2)NC1=O [Example 49, 1-[5-(4-{(S)-1-[(S)-4-(2-Hydroxy-2-methyl-propyl)-2-oxo-4-phenyl-tetrahydro-pyrimidin-1-yl]-ethyl}-phenyl)-pyridin-2-yl]-cyclopropanecarboxylic acid amide] | 8.82 |
| C[C@@H](c1ccc(-c2ccc(=O)n(C3COC3)c2)cc1)N1CC[C@](CC(C)(C)O)(c2ccccc2)OC1=O [Example 58, (S)-6-(2-Hydroxy-2-methyl-propyl)-3-{(S)-1-[4-(1-oxetan-3-yl-6-oxo-1,6-dihydro-pyridin-3-yl)-phenyl]-ethyl}-6-phenyl-[1,3]oxazinan-2-one] | 8.37 |
| C[C@@H](c1ccc(-c2ccc(C3(C(N)=O)CC3)nc2)cc1)N1CC[C@@](CC2CC2)(CC(C)(C)O)OC1=O [Example 59, 1-[5-(4-{(S)-1-[(S)-6-Cyclopropylmethyl-6-(2-hydroxy-2-methyl-propyl)-2-oxo-[1,3]oxazinan-3-yl]-ethyl}-phenyl)-pyridin-2-yl]-cyclopropanecarboxylic acid amide] | 8.19 |
